Source: patent US11213514B2, “Alpha-1-adrenergic receptor agonist therapy” (The Regents of the University of California, priority 2016, dated 2022)

Key:
[1] = tested on: neonatal rat ventricular myocytes (NRVMs); assay: Annexin V / propidium iodide apoptosis and cell death in NRVMs; format: cell-based
Method: FIGS. 5A-5B. In neonatal rat ventricular myocytes, dabuzalgron protects against apoptotic and necrotic cell death due to doxorubicin. […] Apoptosis was detected using FITC-labeled Annexin V, cell death was detected using propridium iodide, and nuclei were labeled with Hoechst. FIG. 5A. Representative epifluorescence microscopy for each treatment condition. FIG. 5B. Fluorescence intensity was analyzed using Image J software for 3 independent experiments, using at least 2 wells per condition for each experiment.
Cells were washed with cold PBS two times then incubated with 200 μl binding buffer (10 mM HEPES, 140 mM NaCl, and 2.5 mM CaCl2, pH 7.4) including 10 μL fluorescein isothiocyanate (FITC)-labeled Annexin V, 2 μL propidium iodide (PI) and 1 μg/mL Hoechst 33342 (Molecular Probes, USA) for 15 min at room temperature. They were examined under a epifluorescence microscopy (Olympus IX81 Inverted Light Microscope, UNC Microscopy Core). Images were analyzed using Image J software. The experiment was carried out three independent times with duplicates of each treatment condition. An average of 352 nuclei were counted in an average of 6 microscopic fields per experiment.

ERK = ERK activation in mouse heart lysates with DOX, dabuzalgron and trametinib; format: in vivo
From the text: FIGS. 4A-4F. […] The reaction was stopped immediately and lysates were blotted for total and phospho-ERK (pERK). FIG. 4A. […] FIG. 4B. […] FIG. 4C. […] The average pERK/ERK ratio for each experiment was derived from at least 2 individual wells and normalized to the pERK/ERK ratio for vehicle treated NRVMs. FIG. 4D and FIG. 4E. […] Heart lysates were blotted for pERK and ERK. Results were compared using one way ANOVA with Tukey post-test. FIG. 4F.
(§1) On Day 7, mice underwent echocardiography and were sacrificed by cervical dislocation after an overdose of isoflurane.
Homogenized tissue or cells were lysed in RIPA buffer with protease and phosphatase inhibitor (as above) and the lysate was passed through a Qiashredder. Equal protein abundance was assured with the Bradford assay (tissue lysates) or equal cell number (NRVMs). Samples were run for 2 hours at 140 v on ice on a Novex NuPAGE 4-12% Bis-Tris gel then transferred to a PVDF membrane at 90V for 1 hour on ice. Membranes were blocked in 5% milk at room temperature for 1 hour. We used Cell Signaling kit #9100 (pERK Thr202/Tyr204 1:250, ERK 1:1000, anti-rabbit HRP 1:1000). BID: (Santa Cruz, SC-11423); Cytochrome C: (Santa Cruz, SC-13560); AIF: (Santa Cruz, SC-13116); Caspase 8: (MBL international corporation, JM-3020-100); PARP: (Cell Signaling, #9532); Caspase 3: (Cell Signaling, #9665); Cleaved caspase 3: (Cell Signaling, #9664)

[2] = tested on: Complex I, ATP synthase and Cytochrome C oxidase subunit transcripts; assay: RNAseq transcript abundance of mitochondrial gene sets in mouse heart; format: in vivo
Method: (§2) FIGS. 3A-3E. […] FIG. 3A. […] FIG. 3B. […] FIG. 3C. […] FIG. 3E.
An omnibus test of transcript abundance across all groups was performed with DESeq2 with groups encoded as categorical variables. One hundred-one genes were identified as significant by meeting the q<0.05 threshold (the set of genes with a 5% false discovery rate). Note, genes of potential interest can be found in Table 4.
(§3) (FIG. 3B). […] (FIG. 3C).
RNAseq was performed at the Carolina Center for Genome Sciences High Throughput Sequencing Facility. Libraries were prepared using an Illumina RNA TruSeq kit for total RNA. Single read sequencing (1×100) was performed on an Illumina HiSeq 2000 system. QC-passed reads were aligned to the mouse reference genome (mm9) using MapSplice.3 The alignment profile was determined by Picard Tools v1.64 (broadinstitute.github.io/picard/). Aligned reads were sorted and indexed using SAMtools and translated to transcriptome coordinates then filtered for indels, large inserts, and zero mapping quality using UBU v1.0 (github.com/mozack/ubu). Transcript abundance estimates for each sample were performed using RSEM, an expectation-maximization algorithm4 using the UCSC knownGene transcript and gene definitions. Raw RSEM read counts for all RNAseq samples were normalized to the overall upper quartile.5 Gene level differential expression testing was performed using the method of Love et al. (2014) implemented in the R package DESeq2. Gene set level tests were performed using the method of Efron and Tibshirani (2006) and gene sets as defined in the molecular signatures database, mSigdb.6 .GEO accession number is pending.

[3] = tested on: TBARS (lipid peroxidation) in mouse myocardium; assay: Thiobarbituric acid reactive substances (TBARS) in mouse heart tissue; format: in vivo
From the text: as §2, §3

wild type (WT) mice = assay: Doxorubicin cardiotoxicity in wild type mice (survival, anatomy, conscious echocardiography, fibrosis)
From the text: FIGS. 2A-2B. […] On Day 7 the mice underwent echocardiography prior to sacrifice. FIG. 2A. Fractional shortening, a measure of contractile function, with representative M-mode echocardiogram images. […] FIG. 2B. Heart sections from some of these mice (i.e. wild type mice) stained with Masson Trichrome. Fibrosis (weighted average collagen content) was quantified using Aperio ImageScope software.
as §1
Conscious transthoracic echocardiography was performed on loosely restrained mice in the McAllister Heart Institute Animal Models Core using a VisualSonics Vevo 2100 ultrasound system (VisualSonics, Inc., Toronto, Ontario, Canada). Two-dimensional and M-mode echocardiography were performed in the parasternal long-axis view at the level of the papillary muscle. Left ventricular systolic function was assessed by fractional shortening (% FS=[(LVEDD−LVESD)/LVEDD]×100). Reported values represent the average of at least five cardiac cycles per mouse. Sonographers and investigators were blinded to mouse treatment condition during image acquisition and analysis.
Mice were heparinized and the heart was perfused with 10 mL PBS followed by 20 mL of 4% PFA/PBS through a 23 G butterfly needle, excised and placed in 4% PFA/PBS for 24 hours then transferred to 70% EtOH. Hearts were stained using standard methods in the UNC Histology Research Core. Fibrosis was analyzed in 3 Masson Trichrome (MT)-stained sections of 4 or 5 hearts from each treatment group. Slides were scanned using an Aperio ScanScope (Aperio Technologies, Vista, Calif.) and analyzed in Aperio ImageScope software. The Algorithm Positive Pixel Count v9 was used to measure collagen staining by MT using hue value (0.66) and hue width (0.1) The N positive/N total value was used to determine a weighted average collagen content (%) for each section.

[4] = NRVMs, DOX, four hour treatment
[5] = DOX + dabuzalgron 10 μg/kg twice daily
[6] = dabuzalgron in the absence of DOX
[7] = WT mice, dabuzalgron after DOX, Day 7
[8] = wild type mice, Dox 20 mg/kg i.p. + dabuzalgron 20 μg/kg/d gavage 7 days
[9] = wild type mice, Dox + 1240 20 μg/kg/d, Day 7 echocardiography

## COc1cccc2c1C(=O)c1c(O)c3c(c(O)c1C2=O)C[C@@](O)(C(=O)CO)C[C@@H]3O[C@H]1C[C@H](N)[C@H](O)[C@H](C)O1 [DOX, doxorubicin]
[1]; [4]
  apoptosis (Annexin V staining): increased
  necrotic cell death (costaining with Annexin V and propidium iodide): increased
ERK; mice treated with DOX
  ERK activation in heart: reduced
[2]; DOX 20 mg/kg, Day 7
  abundance of ATP synthase subunits (17 genes): decreased
  abundance of Complex I subunits (42 genes): decreased
[3]; hearts of mice treated with DOX
  TBARS abundance: more abundant
Wild type (WT) mice; mouse, in vivo
  burden of fibrosis, Masson Trichrome: increased significantly
  contractile function, conscious echocardiography: decrease
Wild type (WT) mice; wild type mice, Dox 20 mg/kg i.p. + vehicle gavage 7 days
  7-day survival: 78%
Wild type (WT) mice; wild type mice, Dox 20 mg/kg i.p. + vehicle gavage 7 days, listed as Dox
  7-day survival: 78%

## Cc1c(OCC2=NCCN2)ccc(Cl)c1NS(C)(=O)=O [dabuzalgron, N-[6-chloro-3-(4,5-dihydro-1H-imidazol-2-ylmethoxy)-2-methylphenyl]methanesulfonamide]
[1]
  Annexin V or propidium iodide staining vs untreated cells: did not change
[1]; NRVMs, DOX 204 with dabuzalgron 1004, four hours
  effect on DOX-induced necrotic cell death: abrogated
[1]; NRVMs, DOX with dabuzalgron 1004, four hours
  effect on DOX-induced apoptosis: abrogated
ERK; mice, DOX + dabuzalgron
  effect on DOX-induced reduction of ERK activation: partially mitigated
ERK; mice, DOX, dabuzalgron and trametinib
  ERK activation after trametinib: could not restore
[2]; [5]
  expression of ATP synthase subunits after DOX: restored
  expression of Complex I subunits after DOX: restored
  expression of Cytochrome C oxidase subunits (25 genes) after DOX: increased
[2]; [6]
  ATP synthase subunit abundance: no significant effect
  Complex I subunit abundance: increased
  Cytochrome C (oxidase subunit) abundance: no significant effect
[3]; co-administration of dabuzalgron with DOX
  TBARS content: normalized
Wild type (WT) mice; DOX 20 mg/kg i.p., dabuzalgron 10 μg/kg twice daily 7 days
  effect of dabuzalgron on DOX-induced decrease in survival: not fully mitigated
Wild type (WT) mice; WT mice, Day 7, dabuzalgron after DOX
  effect on DOX-induced decrease in contractile function: prevented
Wild type (WT) mice; [7]
  fractional shortening after DOX: preserved
  left ventricular end systolic volume after DOX: preserved
Wild type (WT) mice; WT mouse heart sections, dabuzalgron after DOX
  effect on DOX-induced increase in fibrosis: mitigated
Wild type (WT) mice; mouse, in vivo
  echocardiographic parameters: no effect
Wild type (WT) mice; [8]
  7-day survival: 86%
  Body Wt Day 7: 24.3 ± 0.6 g
  HW/BW: 0.41 ± 0.02 %
  HW/TL: 5.5 ± 0.3 mg/mm
  Heart Wt: 97 ± 5 mg
  Lung Wt/TL: 7.7 ± 0.4 mg/mm
Wild type (WT) mice; [9]
  FS (Fractional Shortening): 53 ± 1 %
  HR (Heart Rate): 667 ± 10 beats per minute
  LVs vol (Left Ventricular systolic volume): 5 µL
  PWd (Posterior Wall, diastole): 0.9 mm
